Assay results reported in US7569352B2, “Method for identifying modulators of the dioxin/aryl hydrocarbon receptor (AHR)” (InDex Pharmaceuticals AB, priority 2003, dated 2009).

Columns and labels:
TFF2 mRNA expression = experiment: RNA blot of TFF2 mRNA expression in mouse hepatoma cells exposed to TCDD; type: cell-based
Method: (§1) (A) RNA blot (30 μg total RNA) showing mRNA expression in mouse hepatoma cells of TFF2, CYP1A1 and the housekeeping gene GAPDH after exposure to increasing concentrations of TCDD. Mouse hepatoma cells were cultured in 6 cm petri dishes and exposed to TCDD dissolved in dimethyl sulfoxid (DMSO, 0.1% total volume) at concentrations indicated in the figure, or vehicle alone (“0 nM”) for 24 hours before cell harvest and RNA isolation. The band intensity of TFF2 (B) and CYP1A1 (C) was measured by Phosphor Imager analysis and normalized against expression of GAPDH. The numbers represent the fold increase of TFF2 and CYP1A1 mRNA expression compared to the corresponding vehicle-treated control.
(§2) (A) RNA blot (30 μg total RNA) showing mRNA expression in mouse hepatoma cells of TFF2, CYP1A1 and the housekeeping gene GAPDH after exposure to TCDD at increasing length of time. […] The band intensity of TFF2 (B) and CYP1A1 (C) was measured by Phosphor Imager analysis and normalized against expression of GAPDH. […]
(§3) The glandular part of mouse stomachs was removed and snap-frozen in liquid nitrogen. […] The filters were hybridized with specific 32P-labeled cDNA fragments and exposed to autoradiographic film and band intensity was quantified by Phosphoimager analysis (Fuji).

CYP1A1 mRNA expression = experiment: RNA blot of CYP1A1 mRNA expression in mouse hepatoma cells exposed to TCDD; type: cell-based
Method: as §1, §2, §3

[1] = 10 nM TCDD, increasing length of time, vs vehicle
[2] = increasing concentrations of TCDD, 24 hours, vs vehicle (DMSO)

Compound: Clc1cc2c(cc1Cl)Oc1cc(Cl)c(Cl)cc1O2 [TCDD, 2,3,7,8-tetrachlorodibenzo-p-dioxin]
- TFF2 mRNA expression normalized against GAPDH (TFF2 mRNA expression; [1]): time-dependent increase
- TFF2 mRNA expression normalized against GAPDH (TFF2 mRNA expression; [2]): concentration-dependent increase
- CYP1A1 mRNA expression normalized against GAPDH (CYP1A1 mRNA expression; [1]): time-dependent increase
- CYP1A1 mRNA expression normalized against GAPDH (CYP1A1 mRNA expression; [2]): concentration-dependent increase
